One assay has as its target GLP-1R (Homo sapiens, UniProt P43220). Nature of the assay: HitHunter cAMP assay (GLP-1R). It counts as cell-based. The following applies: for Emax: read-out: (Emax) GLP-1R. In a few lines:
(§1)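 Luminescent readout of cAMP by enzyme-fragment immunocompetition gave agonist concentration-response data. Cells (10,000/well) sat in HBSS buffer containing IBMX 625 μM, HEPES 10 mM and BSA 0.2%, exposed to agonist for 30 min at room temperature.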

A further assay has as its target T1, GIP-R (Homo sapiens, UniProt P48546).
T1 sequence (P48546 22-466): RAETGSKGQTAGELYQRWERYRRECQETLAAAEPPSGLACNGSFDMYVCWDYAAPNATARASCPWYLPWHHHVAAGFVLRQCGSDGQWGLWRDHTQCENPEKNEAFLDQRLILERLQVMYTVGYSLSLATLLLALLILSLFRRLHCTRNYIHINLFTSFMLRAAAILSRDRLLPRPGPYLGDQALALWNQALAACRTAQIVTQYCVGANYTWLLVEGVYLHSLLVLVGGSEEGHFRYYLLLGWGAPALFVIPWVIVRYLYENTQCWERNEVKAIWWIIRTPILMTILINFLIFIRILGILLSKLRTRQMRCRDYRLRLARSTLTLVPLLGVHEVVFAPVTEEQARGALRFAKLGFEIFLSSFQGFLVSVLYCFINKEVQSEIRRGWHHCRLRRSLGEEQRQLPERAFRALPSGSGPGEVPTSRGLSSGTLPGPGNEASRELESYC
The assay is described as follows: HitHunter cAMP assay (GIP-R). It counts as cell-based. The following applies: for EC50 / Emax: cAMP; for Emax: read-out: (Emax) GIP-R. In a few lines: as §1
Background: cAMP levels reflect the balance of adenylyl cyclase and phosphodiesterase activity.

Setting [1] is: read-out: EC50 GLP-1R/nM, Table 3A, cAMP.
[2] abbreviates: Table 3A, cAMP, read-out: EC50 GLP-1R/nM.
The mark [3] stands for this setting: Table 3A, read-out: EC50 GIP-R/nM.

The structures appear in SMILES notation. Where two headings read alike, the source gives them in different places. Numbered stars: 1 amine (or outer) side, 2 acyl side, 3 side chain; on linkers, the order of the positions; unused ones are H or OH. Square brackets hold non-standard residues; d marks the D form. Side chains are listed from the residue outwards. Peptide text beside a SMILES is read from it. * marks the point of attachment. γGlu = O=C(O)[C@H](CCC(=O)[*:2])N[*:1]; X2 = O=C(CSCC(=O)*)NCCN1C(=O)CSC1=O; Palmitoyl = CCCCCCCCCCCCCCCC(=O)*; Aib = CC(C)(N)C(=O)O

GLP-1R, sequence (P43220 24-463): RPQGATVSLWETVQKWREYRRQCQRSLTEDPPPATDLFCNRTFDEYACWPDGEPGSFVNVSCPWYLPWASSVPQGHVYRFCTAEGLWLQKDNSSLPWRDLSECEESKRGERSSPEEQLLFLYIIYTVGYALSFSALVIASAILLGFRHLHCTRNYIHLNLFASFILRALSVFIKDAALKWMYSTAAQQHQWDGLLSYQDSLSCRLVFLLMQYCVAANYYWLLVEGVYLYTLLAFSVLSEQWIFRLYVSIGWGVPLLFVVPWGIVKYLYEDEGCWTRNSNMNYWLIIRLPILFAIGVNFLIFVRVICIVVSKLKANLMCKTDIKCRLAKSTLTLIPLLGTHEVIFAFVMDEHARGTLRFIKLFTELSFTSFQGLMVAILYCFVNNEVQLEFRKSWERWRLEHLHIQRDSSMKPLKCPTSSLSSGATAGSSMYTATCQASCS

In the case of `CC[C@H](C)[C@H](NC(=O)[C@H](CO)NC(=O)[C@H](Cc1ccc(O)cc1)NC(=O)[C@H](CC(=O)O)NC(=O)[C@H](CO)NC(=O)[C@@H](NC(=O)[C@H](Cc1ccccc1)NC(=O)[C@@H](NC(=O)CNC(=O)[C@H](CCC(=O)O)NC(=O)CSCC(=O)NCCN(C)C(=O)c1ccccc1)[C@@H](C)O)[C@@H](C)O)C(=O)N[C@@H](Cc1ccc(O)cc1)C(=O)N[C@@H](CC(C)C)C(=O)N[C@@H](CC(=O)O)C(=O)N[C@@H](CCCCN)C(=O)N[C@@H](CCC(N)=O)C(=O)N[C@@H](C)C(=O)N[C@@H](C)C(=O)NC(C)(C)C(=O)N[C@@H](CCC(=O)O)C(=O)N[C@@H](Cc1ccccc1)C(=O)N[C@H](C(=O)N[C@@H](CC(N)=O)C(=O)N[C@@H](Cc1c[nH]c2ccccc12)C(=O)N[C@@H](CC(C)C)C(=O)N[C@@H](CC(C)C)C(=O)N[C@@H](C)C(=O)NCC(=O)NCC(=O)N1CCC[C@H]1C(=O)N[C@@H](CO)C(=O)N[C@@H](CO)C(=O)NCC(=O)N[C@@H](C)C(=O)N1CCC[C@H]1C(=O)N1CCC[C@H]1C(=O)N1CCC[C@H]1C(=O)N[C@@H](CO)C(=O)N[C@@H](CCCCN)C(N)=O)C(C)C` [Compound 169], the EC50 on GLP-1R was 1 to 10 nM; on GLP-1R (setting [1]) it was 1 to 10 nM; at GIP-R (EC50 GIP-R/nM, Table 3), more than 1000 nM; on GIP-R (read-out: EC50 GIP-R/nM, Table 3A) it was more than 1000 nM. Besides, on GLP-1R, the maximal effect (Emax) – broadly, the maximal effect, on the per cent scale that the assay sets – came to 96%. Also, the Emax at 1 µM at GIP-R (read-out: (Emax) GIP-R at 1 μM) lay within 6 to 8%.
As to `CC[C@H](C)[C@H](NC(=O)[C@H](CO)NC(=O)[C@H](Cc1ccc(O)cc1)NC(=O)[C@H](CC(=O)O)NC(=O)[C@H](CO)NC(=O)[C@@H](NC(=O)[C@H](Cc1ccccc1)NC(=O)[C@@H](NC(=O)CNC(=O)[C@H](CCC(=O)O)NC(=O)CCCCCCCCN1C(=O)CSC1=O)[C@@H](C)O)[C@@H](C)O)C(=O)N[C@@H](Cc1ccc(O)cc1)C(=O)N[C@@H](CC(C)C)C(=O)N[C@@H](CC(=O)O)C(=O)N[C@@H](CCCCN)C(=O)N[C@@H](CCC(N)=O)C(=O)N[C@@H](C)C(=O)N[C@@H](C)C(=O)NC(C)(C)C(=O)N[C@@H](CCC(=O)O)C(=O)N[C@@H](Cc1ccccc1)C(=O)N[C@H](C(=O)N[C@@H](CC(N)=O)C(=O)N[C@@H](Cc1c[nH]c2ccccc12)C(=O)N[C@@H](CC(C)C)C(=O)N[C@@H](CC(C)C)C(=O)N[C@@H](C)C(=O)NCC(=O)NCC(=O)N1CCC[C@H]1C(=O)N[C@@H](CO)C(=O)N[C@@H](CO)C(=O)NCC(=O)N[C@@H](C)C(=O)N1CCC[C@H]1C(=O)N1CCC[C@H]1C(=O)N1CCC[C@H]1C(=O)N[C@@H](CO)C(=O)N[C@@H](CCCCN)C(N)=O)C(C)C` [Compound 174], the maximal response (Emax) fell in the range of 17 to 73% on GLP-1R (Table 3, cAMP); 17 to 73% at GLP-1R (Table 3A, cAMP); 30 to 66% on GIP-R (Table 3); 30 to 66% on GIP-R (Table 3A). In addition, the EC50 on GLP-1R (read-out: EC50 GLP-1R/nM, Table 3, cAMP) lay within 10 to 1000 nM; at GLP-1R (setting [1]), 10 to 1000 nM; at GIP-R (EC50 GIP-R/nM, Table 3), 100 to 1000 nM; on GIP-R (EC50 GIP-R/nM, Table 3A), 100 to 1000 nM.
Turning to `CC[C@H](C)[C@H](NC(=O)[C@H](CO)NC(=O)[C@H](Cc1ccc(O)cc1)NC(=O)[C@H](CC(=O)O)NC(=O)[C@H](CO)NC(=O)[C@@H](NC(=O)[C@H](Cc1ccccc1)NC(=O)[C@@H](NC(=O)CNC(=O)[C@H](CCC(=O)O)NC(=O)CCCCCCCN1C(=O)CSC1=O)[C@@H](C)O)[C@@H](C)O)C(=O)N[C@@H](Cc1ccc(O)cc1)C(=O)N[C@@H](CC(C)C)C(=O)N[C@@H](CC(=O)O)C(=O)N[C@@H](CCCCN)C(=O)N[C@@H](CCC(N)=O)C(=O)N[C@@H](C)C(=O)N[C@@H](C)C(=O)NC(C)(C)C(=O)N[C@@H](CCC(=O)O)C(=O)N[C@@H](Cc1ccccc1)C(=O)N[C@H](C(=O)N[C@@H](CC(N)=O)C(=O)N[C@@H](Cc1c[nH]c2ccccc12)C(=O)N[C@@H](CC(C)C)C(=O)N[C@@H](CC(C)C)C(=O)N[C@@H](C)C(=O)NCC(=O)NCC(=O)N1CCC[C@H]1C(=O)N[C@@H](CO)C(=O)N[C@@H](CO)C(=O)NCC(=O)N[C@@H](C)C(=O)N1CCC[C@H]1C(=O)N1CCC[C@H]1C(=O)N1CCC[C@H]1C(=O)N[C@@H](CO)C(=O)N[C@@H](CCCCN)C(N)=O)C(C)C` [Compound 175], the EC50 at GLP-1R (EC50 GLP-1R/nM, Table 3, cAMP) fell in the range of 10 to 100 nM; on GLP-1R (EC50 GLP-1R/nM, Table 3A, cAMP) it was 10 to 100 nM; on GIP-R (EC50 GIP-R/nM, Table 3) it was 10 to 100 nM; at GIP-R (EC50 GIP-R/nM, Table 3A) it was 10 to 100 nM. In addition, the maximum response (Emax) on GLP-1R (Table 3, cAMP) was 87 to 94%; on GLP-1R (Table 3A, cAMP), 87 to 94%; on GIP-R (Table 3), 38%; on GIP-R (Table 3A), 38%.
`CCCCCCCCCCCCCCCC(=O)N[C@@H](CCC(=O)NCCCC[C@H](NC(=O)[C@@H](NC(=O)[C@H](Cc1ccccc1)NC(=O)[C@H](CCC(=O)O)NC(=O)C(C)(C)NC(=O)[C@H](C)NC(=O)[C@H](C)NC(=O)[C@H](CCC(N)=O)NC(=O)[C@H](CCCCN)NC(=O)[C@H](CC(=O)O)NC(=O)[C@H](CC(C)C)NC(=O)[C@H](Cc1ccc(O)cc1)NC(=O)[C@@H](NC(=O)[C@H](CO)NC(=O)[C@H](Cc1ccc(O)cc1)NC(=O)[C@H](CC(=O)O)NC(=O)[C@H](CO)NC(=O)[C@@H](NC(=O)[C@H](Cc1ccccc1)NC(=O)[C@@H](NC(=O)CNC(=O)[C@H](CCC(=O)O)NC(=O)CSCC(=O)NCCN1C(=O)CSC1=O)[C@@H](C)O)[C@@H](C)O)[C@@H](C)CC)C(C)C)C(=O)N[C@@H](Cc1c[nH]c2ccccc12)C(=O)N[C@@H](CC(C)C)C(=O)N[C@@H](CC(C)C)C(=O)N[C@@H](C)C(=O)NCC(=O)NCC(=O)N1CCC[C@H]1C(=O)N[C@@H](CO)C(=O)N[C@@H](CO)C(=O)NCC(=O)N[C@@H](C)C(=O)N1CCC[C@H]1C(=O)N1CCC[C@H]1C(=O)N1CCC[C@H]1C(=O)N[C@@H](CO)C(=O)N[C@@H](CCCCN)C(N)=O)C(=O)O` [Compound 197] (X2-EGTFTSDYSIYLDKQAA[Aib]EFVK([γGlu-Palmitoyl])WLLAGGPSSGAPPPSK-NH2): the maximum response (Emax) amounted to 95% at GLP-1R (Table 3A, cAMP) and 20% on GIP-R (Table 3A). For the same compound, the EC50 fell in the range of 10 to 100 nM at GLP-1R (setting [2]) and 100 to 1000 nM at GIP-R (setting [3]).
`CCCCCCCCCCCCCCCC(=O)N[C@@H](CCC(=O)NCCCC[C@H](NC(=O)CNC(=O)[C@H](CCCNC(=N)N)NC(=O)CNC(=O)[C@H](C)NC(=O)[C@H](CC(C)C)NC(=O)[C@H](CC(C)C)NC(=O)[C@H](Cc1c[nH]c2ccccc12)NC(=O)[C@H](CC(N)=O)NC(=O)[C@@H](NC(=O)[C@H](Cc1ccccc1)NC(=O)[C@H](CCC(=O)O)NC(=O)C(C)(C)NC(=O)[C@H](C)NC(=O)[C@H](C)NC(=O)[C@H](CCC(N)=O)NC(=O)[C@H](CCCCN)NC(=O)[C@H](CC(=O)O)NC(=O)[C@H](CC(C)C)NC(=O)[C@H](Cc1ccc(O)cc1)NC(=O)[C@@H](NC(=O)[C@H](CO)NC(=O)[C@H](Cc1ccc(O)cc1)NC(=O)[C@H](CC(=O)O)NC(=O)[C@H](CO)NC(=O)[C@@H](NC(=O)[C@H](Cc1ccccc1)NC(=O)[C@@H](NC(=O)CNC(=O)[C@H](CCC(=O)O)NC(=O)CSCC(=O)NCCN1C(=O)CSC1=O)[C@@H](C)O)[C@@H](C)O)[C@@H](C)CC)C(C)C)C(=O)NCC(=O)N1CCC[C@H]1C(=O)N[C@@H](CO)C(=O)N[C@@H](CO)C(=O)NCC(=O)N[C@@H](C)C(=O)N1CCC[C@H]1C(=O)N1CCC[C@H]1C(=O)N1CCC[C@H]1C(=O)N[C@@H](CO)C(N)=O)C(=O)O` [Compound 198] (X2-EGTFTSDYSIYLDKQAA[Aib]EFVNWLLAGRGK([γGlu-Palmitoyl])GPSSGAPPPS-NH2): the Emax on GLP-1R (Table 3A, cAMP) was determined as 95%; at GIP-R (Table 3A), 81%. Further, the EC50 at GLP-1R (setting [2]) and on GIP-R (setting [3]) was 10 to 100 nM each time.

The record behind these values is patent US20260176320A1, “MODULATORS OF G-PROTEIN COUPLED RECEPTORS” (priority 2018, published 2026).
